Assay results taken from US8846749B2, “Anticancer-aiding compound, method for preparing the same, anticancer-aiding composition containing the same and method for reducing anticancer drug resistance using the same” (Ewha University-Industry Collaboration Foundation, priority 2009, dated 2014).

Tested on: MCF-7/ADR cells
Test: Effects of compounds on cytotoxicity of daunomycin (SRB staining)
Format: cell-based
Conditions: Homo sapiens, NCI/ADR-RES, daunomycin alone (DMSO control), 2-hour incubation, SRB after 3 days
Experimental: The cells were cultured to confluence on the plate at 37° C. for 24 hours.
At this time, the group to which only DMSO was added in place of the compounds in accordance with the present invention was taken as a control. […] After 3 days, cytotoxicity was examined according to an SRB staining method which is briefly described as follows. Cells were fixed with 10% TCA for one hour, washed 4 times with water, and then dried. An SRB reagent (0.4% w/v in 1% acetic acid) was added to each well and one hour later, the plate was washed 4 times with 1% acetic acid.

Structure (SMILES) | IC50
COc1cccc2c1C(=O)c1c(O)c3c(c(O)c1C2=O)C[C@@](O)(C(C)=O)C[C@@H]3O[C@H]1C[C@H](N)[C@H](O)[C@H](C)O1 [DNM, Daunomycin] | 25.6 µM

Tested on: not given
Test: not given
Conditions: not given

Structure (SMILES) | melting point
COc1cccc2c(=O)c3c(O)cc(OCC(O)CCl)cc3oc12 (stereo not shown) [Compound 1, 3-(3-chloro-2-hydroxypropoxy)-1-hydroxy-5-methoxy-9H-xanthen-9-one] | 184 °C
O=c1c2ccccc2oc2cc(OCC(O)CCl)cc(O)c12 (stereo not shown) [Compound 2, 3-(3-chloro-2-hydroxypropoxy)-1-hydroxy-9H-xanthen-9-one] | 144 °C
COc1cccc2c(=O)c3c(O)cc(OCC4CS4)cc3oc12 (stereo not shown) [Compound 3, 1-hydroxy-5-methoxy-3-(thiiran-2-ylmethoxy)-9H-xanthen-9-one] | 187 °C
COc1cccc2c(=O)c3c(OCC4CS4)cc(OCC4CS4)cc3oc12 (stereo not shown) [Compound 5, 1,3-bis(thiiran-2-ylmethoxy)-5-methoxy-9H-xanthen-9-one] | 240 °C
O=c1c2ccccc2oc2cc(OCC(O)CO)cc(O)c12 (stereo not shown) [Compound 6, 3-(2,3-dihydroxypropoxy)-1-hydroxy-9H-xanthen-9-one] | 170 °C
COc1cccc2c(=O)c3c(O)cc(OCC(O)CO)cc3oc12 (stereo not shown) [Compound 7, 3-(2,3-dihydroxypropoxy)-1-hydroxy-5-methoxy-9H-xanthen-9-one] | 189 °C
O=c1c2ccccc2sc2cc(OCC3CS3)cc(O)c12 (stereo not shown) [Compound 8, 1-hydroxy-3-(thiiran-2-ylmethoxy)-9H-thioxanthen-9-one] | 149 °C
COc1cc(OCC(O)CCl)cc2oc3ccccc3c(=O)c12 (stereo not shown) [Compound 9, 3-(3-chloro-2-hydroxypropoxy)-1-methoxy-9H-xanthen-9-one] | 107 °C
O=c1c2ccccc2sc2cc(OCC(O)CCl)cc(O)c12 (stereo not shown) [Compound 10, 3-(3-chloro-2-hydroxypropoxy)-1-hydroxy-9H-thioxanthen-9-one] | 151 °C
O=c1c2ccccc2sc2cc(OCC(S)CCl)cc(O)c12 (stereo not shown) [Compound 11, 3-(3-chloro-2-mercaptopropoxy)-1-hydroxy-9H-thioxanthen-9-one] | 134 °C
O=c1c2ccc3ccccc3c2oc2cc(OCC3CS3)cc(OCC3CS3)c12 (stereo not shown) [Compound 12, 8,10-bis(thiiran-2-ylmethoxy)-7H-benzo[c]xanthen-7-one] | 202 °C
COc1cccc2c(=O)c3c(O)cc(OCC(S)CCl)cc3oc12 (stereo not shown) [Compound 13, 3-(3-chloro-2-mercaptopropoxy)-1-hydroxy-5-methoxy-9H-xanthen-9-one] | 125 °C
O=c1c2c(O)cc(OCC3CS3)cc2oc2ccc3ccccc3c12 (stereo not shown) [Compound 14, 11-hydroxy-9-(thiiran-2-ylmethoxy)-12H-benzo[a]xanthen-12-one] | 167 to 168 °C
O=c1c2c(OCC3CS3)cc(OCC3CS3)cc2oc2ccc3ccccc3c12 (stereo not shown) [Compound 15, 9,11-bis(thiiran-2-ylmethoxy)-12H-benzo[a]xanthen-12-one] | 225 to 226 °C
O=c1c2c(OCC3CO3)cc(OCC3CO3)cc2oc2ccc3ccccc3c12 (stereo not shown) [Compound 17, 9,11-bis(oxiran-2-ylmethoxy)-12H-benzo[a]xanthen-12-one] | 198 to 200 °C
O=c1c2cc3ccccc3cc2oc2cc(OCC3CO3)cc(O)c12 (stereo not shown) [Example 20, 1-hydroxy-3-(oxiran-2-ylmethoxy)-12H-benzo[b]xanthen-12-one] | 201 to 202 °C

Molecular target: P-gp (Homo sapiens, UniProt P08183)
Test: not given
Conditions: 1 h, 100 μM

Chain of P-gp (P08183 whole entry): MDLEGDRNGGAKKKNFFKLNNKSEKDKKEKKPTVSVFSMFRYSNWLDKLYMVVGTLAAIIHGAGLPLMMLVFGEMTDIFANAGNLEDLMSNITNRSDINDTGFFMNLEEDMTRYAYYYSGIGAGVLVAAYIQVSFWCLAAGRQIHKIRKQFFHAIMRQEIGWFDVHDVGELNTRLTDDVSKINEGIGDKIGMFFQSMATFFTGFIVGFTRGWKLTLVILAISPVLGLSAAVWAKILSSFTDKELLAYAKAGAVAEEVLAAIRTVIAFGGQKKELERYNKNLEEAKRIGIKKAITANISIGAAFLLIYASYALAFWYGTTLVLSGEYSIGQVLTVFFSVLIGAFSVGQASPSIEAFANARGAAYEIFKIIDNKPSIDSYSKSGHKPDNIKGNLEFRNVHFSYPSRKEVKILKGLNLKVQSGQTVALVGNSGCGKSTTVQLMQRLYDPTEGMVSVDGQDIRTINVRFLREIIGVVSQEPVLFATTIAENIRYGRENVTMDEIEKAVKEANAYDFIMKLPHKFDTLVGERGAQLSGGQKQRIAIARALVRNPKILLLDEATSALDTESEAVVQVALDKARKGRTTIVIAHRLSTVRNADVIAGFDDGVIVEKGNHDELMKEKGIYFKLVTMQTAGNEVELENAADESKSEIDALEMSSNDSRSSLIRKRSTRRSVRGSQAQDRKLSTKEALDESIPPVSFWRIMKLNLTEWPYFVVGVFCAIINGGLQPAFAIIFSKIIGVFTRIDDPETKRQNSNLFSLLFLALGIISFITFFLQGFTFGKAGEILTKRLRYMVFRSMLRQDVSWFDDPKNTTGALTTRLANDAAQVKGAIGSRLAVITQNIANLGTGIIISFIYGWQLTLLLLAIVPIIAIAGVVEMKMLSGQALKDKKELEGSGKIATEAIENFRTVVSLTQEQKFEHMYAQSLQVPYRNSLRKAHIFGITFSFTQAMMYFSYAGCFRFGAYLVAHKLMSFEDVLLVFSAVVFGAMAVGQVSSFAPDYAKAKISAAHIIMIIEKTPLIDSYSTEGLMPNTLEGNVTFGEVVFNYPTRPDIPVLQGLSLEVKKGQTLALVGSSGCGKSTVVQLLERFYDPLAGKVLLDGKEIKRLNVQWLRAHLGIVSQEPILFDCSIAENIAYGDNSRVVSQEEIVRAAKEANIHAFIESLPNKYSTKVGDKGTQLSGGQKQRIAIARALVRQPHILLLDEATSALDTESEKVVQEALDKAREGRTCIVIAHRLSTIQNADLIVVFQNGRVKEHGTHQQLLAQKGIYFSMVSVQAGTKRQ

Structure (SMILES) | Cellular efflux amount of daunomycin (%)
O=c1c2ccc3ccccc3c2oc2cc(OCC3CS3)cc(OCC3CS3)c12 (stereo not shown) [Compound 12, 8,10-bis(thiiran-2-ylmethoxy)-7H-benzo[c]xanthen-7-one] | 40.39 ± 4.38 %
O=c1c2c(O)cc(OCC3CS3)cc2oc2ccc3ccccc3c12 (stereo not shown) [Compound 14, 11-hydroxy-9-(thiiran-2-ylmethoxy)-12H-benzo[a]xanthen-12-one] | 64.81 ± 20.45%
O=c1c2c(OCC3CS3)cc(OCC3CS3)cc2oc2ccc3ccccc3c12 (stereo not shown) [Compound 15, 9,11-bis(thiiran-2-ylmethoxy)-12H-benzo[a]xanthen-12-one] | 40.04 ± 5.33 %
O=c1c2cc3ccccc3cc2oc2cc(OCC3CS3)cc(O)c12 (stereo not shown) [Compound 18, 1-hydroxy-3-(thiiran-2-ylmethoxy)-12H-benzo[b]xanthen-12-one] | 44.15 ± 5.08 %
O=c1c2cc3ccccc3cc2oc2cc(OCC3CS3)cc(OCC3CS3)c12 (stereo not shown) [Compound 19, 1,3-bis(thiiran-2-ylmethoxy)-12H-benzo[b]xanthen-12-one] | 42.45 ± 7.23 %
